Experimental data taken from patent publication US6737383B1, “Herbicidal oxadiazolidines” (priority 1999, dated 2004).

Tests used:
rape = experiment: Test B pre/postemergence rape; assay type: in vivo, Brassica napus
Description: (§1) Seeds of bedstraw (Galium aparine), blackgrass (Alopecurus myosuroides), surinam grass (Brachiaria decumbens), cocklebur (Xanthium strumarium), corn (Zea mays), crabgrass (Digitaria sanguinalis), giant foxtail (Setaria faberii), morningglory (Ipomoea hederacea), pigweed (Amaranthus retroflexus), rape (Brassica napus), soybean (Glycine max), sugar beet (Beta vulgaris), velvetleaf (Abutilon theophrasti), wheat (Triticum aestivum), wild oat (Avena fatua) and purple nutsedge (Cyperus rotundus) tubers were planted and treated preemnergence with test chemicals formulated in a non-phytotoxic solvent mixture which included a surfactant.
(§2) At the same time, these crop and weed species were also treated with postemergence applications of test chemicals formulated in the same manner. Plants ranged in height from 2 to 18 cm (1- to 4-leaf stage) for postemergence treatments. Plant species in the flood test consisted of rice (Oryza sativa), smallflower flatsedge (Cyperus difformis), duck salad (Heteranthera limosa) and bamyardgrass (Echinochloa crus-galli) grown to the 2-leaf stage for testing. Treated plants and controls were maintained in a greenhouse for twelve to sixteen days, after which all species were compared to controls and visually evaluated. Plant response ratings, summarized in Table B, are based on a scale of 0 to 10 where 0 is no effect and 10 is complete control. A dash (−) response means no test result.

velvetleaf = experiment: Test B pre/postemergence velvetleaf; assay type: in vivo, Abutilon theophrasti
Description: as §1, §2

purple nutsedge = experiment: Test B pre/postemergence purple nutsedge; assay type: in vivo, Cyperus rotundus
Description: as §1, §2

pigweed = experiment: Test B pre/postemergence pigweed; assay type: in vivo, Amaranthus retroflexus
Description: as §1, §2

crabgrass = experiment: Test B pre/postemergence crabgrass; assay type: in vivo, Digitaria sanguinalis
Description: as §1, §2

morningglory = experiment: Test B pre/postemergence morningglory; assay type: in vivo, Ipomoea hederacea
Description: as §1, §2

cocklebur = experiment: Test B pre/postemergence cocklebur; assay type: in vivo, Xanthium strumarium
Description: as §1, §2

bedstraw = experiment: Test B pre/postemergence bedstraw; assay type: in vivo, Galium aparine
Description: as §1, §2

sugar beet = experiment: Test B pre/postemergence sugar beet; assay type: in vivo, Beta vulgaris
Description: as §1, §2

surinam grass = experiment: Test B pre/postemergence surinam grass; assay type: in vivo, Brachiaria decumbens
Description: as §1, §2

corn = experiment: Test B pre/postemergence corn; assay type: in vivo, Zea mays
Description: as §1, §2

wild oat = experiment: Test B pre/postemergence wild oat; assay type: in vivo, Avena fatua
Description: as §1, §2

wheat = experiment: Test B pre/postemergence wheat; assay type: in vivo, Triticum aestivum
Description: as §1, §2

blackgrass = experiment: Test B pre/postemergence blackgrass; assay type: in vivo, Alopecurus myosuroides
Description: as §1, §2

soybean = experiment: Test B pre/postemergence soybean; assay type: in vivo, Glycine max
Description: as §1, §2

giant foxtail = experiment: Test B pre/postemergence giant foxtail; assay type: in vivo, Setaria faberii
Description: as §1, §2

[1] = Postemergence, Rate 62 g/ha, scale 0 to 10, 0 is no effect, 10 is complete control
[2] = Postemergence, Rate 125 g/ha, scale of 0 to 10 where 0 is no effect and 10 is complete control
[3] = Preemergence, Rate 62 g/ha, scale of 0 to 10 where 0 is no effect and 10 is complete control
[4] = Preemergence, Rate 125 g/ha, scale of 0 to 10 where 0 is no effect and 10 is complete control
[5] = Preemergence, Rate 250 g/ha, scale 0 (no effect) to 10 (complete control)
[6] = Rate 250 g/ha, Postemergence, scale 0 to 10, 0 is no effect, 10 is complete control
[7] = Rate 500 g/ha, Postemergence, scale 0 to 10, 0 is no effect, 10 is complete control
[8] = Preemergence, Rate 500 g/ha, scale of 0 to 10 where 0 is no effect and 10 is complete control

## CC(=O)OCC(CCl)n1c(=O)on(C(=O)N(c2ccc(F)cc2F)C(C)C)c1=O (racemic) [Compound 708]
rape; [1]
  Plant response rating, Rape: 0
rape; [2]
  Rape plant response rating: 0
rape; [3]
  Rape plant response rating: 0
rape; [4]
  Plant response rating, Rape: 0
rape; [5]
  Rape plant response rating: 0
rape; [6]
  Rape plant response rating: 0
rape; [7]
  Rape plant response rating: 0
velvetleaf; [1]
  Plant response rating, Velvetleaf: 0
velvetleaf; [2]
  Velvetleaf plant response rating: 0
velvetleaf; [3]
  Velvetleaf plant response rating: 0
velvetleaf; [4]
  Plant response rating, Velvetleaf: 0
velvetleaf; [5]
  Velvetleaf plant response rating: 2
velvetleaf; [6]
  Velvetleaf plant response rating: 3
velvetleaf; [7]
  Velvetleaf plant response rating: 5
Purple nutsedge; [1]
  Plant response rating, Nutsedge: 0
Purple nutsedge; [2]
  Nutsedge plant response rating: 0
Purple nutsedge; [4]
  Plant response rating, Nutsedge: 0
Purple nutsedge; [5]
  Nutsedge plant response rating: 0
Purple nutsedge; [6]
  Nutsedge plant response rating: 0
Purple nutsedge; [7]
  Nutsedge plant response rating: 0
pigweed; [1]
  Plant response rating, Redroot pigweed: 0
pigweed; [2]
  Redroot pigweed plant response rating: 0
pigweed; [3]
  Redroot pigweed plant response rating: 0
pigweed; [4]
  Plant response rating, Redroot pigweed: 3
pigweed; [6]
  Redroot pigweed plant response rating: 0
pigweed; [7]
  Redroot pigweed plant response rating: 5
crabgrass; [1]
  Plant response rating, Crabgrass: 0
crabgrass; [2]
  Crabgrass plant response rating: 0
crabgrass; [3]
  Crabgrass plant response rating: 6
crabgrass; [4]
  Plant response rating, Crabgrass: 7
crabgrass; [5]
  Crabgrass plant response rating: 10
crabgrass; [6]
  Crabgrass plant response rating: 0
crabgrass; [7]
  Crabgrass plant response rating: 4
morningglory; [1]
  Plant response rating, Morningglory: 0
morningglory; [2]
  Morningglory plant response rating: 2
morningglory; [3]
  Morningglory plant response rating: 0
morningglory; [4]
  Plant response rating, Morningglory: 0
morningglory; [5]
  Morningglory plant response rating: 0
morningglory; [6]
  Morningglory plant response rating: 2
morningglory; [7]
  Morningglory plant response rating: 5
cocklebur; [1]
  Plant response rating, Cocklebur: 0
cocklebur; [2]
  Cocklebur plant response rating: 0
cocklebur; [3]
  Cocklebur plant response rating: 0
cocklebur; [4]
  Plant response rating, Cocklebur: 0
cocklebur; [5]
  Cocklebur plant response rating: 0
cocklebur; [8]
  Plant response rating, Cocklebur: 0
cocklebur; [6]
  Cocklebur plant response rating: 0
cocklebur; [7]
  Cocklebur plant response rating: 0
bedstraw; [1]
  Plant response rating, Bedstraw: 0
bedstraw; [2]
  Bedstraw plant response rating: 0
bedstraw; [3]
  Bedstraw plant response rating: 0
bedstraw; [4]
  Plant response rating, Bedstraw: 0
bedstraw; [5]
  Bedstraw plant response rating: 0
bedstraw; [8]
  Plant response rating, Bedstraw: 0
Sugar beet; [1]
  Plant response rating, Sugarbeets: 0
Sugar beet; [2]
  Sugarbeets plant response rating: 0
Sugar beet; [3]
  Sugarbeets plant response rating: 0
Sugar beet; [4]
  Plant response rating, Sugarbeets: 0
Sugar beet; [5]
  Sugarbeets plant response rating: 0
Sugar beet; [6]
  Sugarbeets plant response rating: 0
Sugar beet; [7]
  Sugarbeets plant response rating: 0
Surinam grass; [1]
  Plant response rating, B. signalgrass: 0
Surinam grass; [2]
  B. signalgrass plant response rating: 0
Surinam grass; [3]
  B. signalgrass plant response rating: 0
Surinam grass; [4]
  Plant response rating, B. signalgrass: 0
Surinam grass; [5]
  B. signalgrass plant response rating: 0
Surinam grass; [8]
  Plant response rating, B. signalgrass: 0
Surinam grass; [6]
  B. signalgrass plant response rating: 0
Surinam grass; [7]
  B. signalgrass plant response rating: 2
corn; [1]
  Plant response rating, Corn: 0
corn; [2]
  Corn plant response rating: 0
corn; [3]
  Corn plant response rating: 0
corn; [4]
  Plant response rating, Corn: 0
corn; [5]
  Corn plant response rating: 0
corn; [6]
  Corn plant response rating: 0
corn; [7]
  Corn plant response rating: 0
Wild oat; [1]
  Plant response rating, Wild oats: 0
Wild oat; [2]
  Wild oats plant response rating: 0
Wild oat; [3]
  Wild oats plant response rating: 0
Wild oat; [4]
  Plant response rating, Wild oats: 0
Wild oat; [5]
  Wild oats plant response rating: 0
Wild oat; [6]
  Wild oats plant response rating: 0
Wild oat; [7]
  Wild oats plant response rating: 0
wheat; [1]
  Plant response rating, Wheat: 0
wheat; [2]
  Wheat plant response rating: 0
wheat; [3]
  Wheat plant response rating: 0
wheat; [4]
  Plant response rating, Wheat: 0
wheat; [5]
  Wheat plant response rating: 0
wheat; [6]
  Wheat plant response rating: 0
wheat; [7]
  Wheat plant response rating: 0
blackgrass; [1]
  Plant response rating, Blackgrass: 0
blackgrass; [2]
  Blackgrass plant response rating: 0
blackgrass; [3]
  Blackgrass plant response rating: 0
blackgrass; [4]
  Plant response rating, Blackgrass: 2
blackgrass; [5]
  Blackgrass plant response rating: 3
blackgrass; [8]
  Plant response rating, Blackgrass: 5
blackgrass; [6]
  Blackgrass plant response rating: 2
blackgrass; [7]
  Blackgrass plant response rating: 2
soybean; [1]
  Plant response rating, Soybean: 3
soybean; [2]
  Soybean plant response rating: 4
soybean; [3]
  Soybean plant response rating: 0
soybean; [4]
  Plant response rating, Soybean: 0
soybean; [5]
  Soybean plant response rating: 0
soybean; [6]
  Soybean plant response rating: 4
soybean; [7]
  Soybean plant response rating: 4
Giant foxtail; [1]
  Plant response rating, Giant foxtail: 0
Giant foxtail; [2]
  Giant foxtail plant response rating: 2
Giant foxtail; [3]
  Giant foxtail plant response rating: 5
Giant foxtail; [4]
  Plant response rating, Giant foxtail: 7
Giant foxtail; [5]
  Giant foxtail plant response rating: 8
Giant foxtail; [6]
  Giant foxtail plant response rating: 4
Giant foxtail; [7]
  Giant foxtail plant response rating: 5
